Data reported in patent US5334757A, “2-(2,3-dicarboxycyclopropyl) glycine and method for producing the same” (Suntory Limited, priority 1991, dated 1994).
Entries after “also recorded” stand apart in the source; their conditions may differ. Where two headings read alike, the source gives them in different places.

Key:
[1] = test system: newborn rat spinal cord preparation; experiment: Measurement of depolarizing activity, newborn rat spinal cord preparation; type: cell-based; conditions: relative to L-glutamic acid = 1
[2] = test system: NMDA receptors; experiment: Depolarization under perfusion with CPP (NMDA receptor agonism); type: cell-based, newborn rat; conditions: for depolarization on adding CPP: 3×10^-5 M CPP perfused; for NMDA type agonistic activity: electrophysiological assay, newborn rat spinal cord preparation
[3] = test system: monosynaptic reflex in the newborn rat spinal cord preparation; experiment: Determination of monosynaptic reflex inhibition activity in the newborn rat spinal cord preparation; design: species or system newborn Wister rat; conditions: for concentration inhibiting (50%) monosynaptic reflex relative to the IC50 of Baclofen: as multiple of IC50 of Baclofen; for monosynaptic reflex inhibition (in words) / IC50: newborn rat spinal cord preparation; for IC50: read-out: IC50 (50% inhibitory concentration), monosynaptic reflex inhibition
Method: The spinal cord of a newborn Wister rat was taken out, as encircled by the spinal column, under etherization.
A single stimulation was applied to a posterior root via a suction electrode and the anterior root reflection potential of the corresponding anterior root was recorded.
DCG-I and DCG-II at various concentration were added to the perfusion solution and the monosynaptic reflexes thus caused were measured.

[4] = test system: non-NMDA type receptors; conditions: Tetrahedron Letters 31 (28), 4049-4052 (1990); Brain Res. 550, 152-156 (1991); cited from earlier work
[5] = test system: NMDA type receptors; conditions: Japanese Patent Laid-Open No. 093563/1991; cited from earlier work
[6] = test system: monosynaptic reflex in the newborn rat spinal cord preparation; conditions: reported value for Baclofen, cited from earlier work

N[C@@H](CCC(=O)O)C(=O)O [L-glutamic acid, reference compound]
Activity ratio [1]: 1

N[C@H](C(=O)O)C1[C@@H](C(=O)O)[C@@H]1C(=O)O (stereo partly drawn) [DCG-I, (2S,1'R,2'R,3'R)-2-(2,3-dicarboxycyclopropyl)glycine]
depolarization on adding CPP [2]: completely inhibited
NMDA type agonistic activity [2]: agonists for NMDA receptors; also recorded: agonist of the NMDA type
Activity ratio [1]: 33
concentration inhibiting (50%) monosynaptic reflex relative to the IC50 of Baclofen [3]: about 1/20
monosynaptic reflex inhibition (in words) [3]: selectively inhibit monosynaptic reflex even at a low concentration
IC50 [3]: 60 nM

N[C@H](C(=O)O)[C@@H]1[C@@H](COCc2ccccc2)[C@@H]1C(=O)O [(2S,1'R,2'R,3'R)-2-(2-carboxy-3-benzyloxymethylcyclopropyl)glycine]
non-NMDA type agonist activity [4]: agonists of the non-NMDA type

N[C@H](C(=O)O)C1[C@H](C(=O)O)[C@H]1C(=O)O (stereo partly drawn) [DCG-II, (2S,1'S,2'S,3'S)-2-(2,3-dicarboxycyclopropyl)glycine]
depolarization on adding CPP [2]: completely inhibited
NMDA type agonistic activity [2]: agonists for NMDA receptors; also recorded: only a week agonistic activity of the NMDA type
Activity ratio [1]: 0.5
concentration inhibiting (50%) monosynaptic reflex relative to the IC50 of Baclofen [3]: twice
monosynaptic reflex inhibition (in words) [3]: selectively inhibit monosynaptic reflex even at a low concentration
IC50 [3]: 1000 nM

COC[C@H]1[C@H](C(=O)O)[C@@H]1[C@H](N)C(=O)O [(2S,1'R,2'R,3'R)-2-(2-carboxy-3-methoxymethylcyclopropyl)glycine]
non-NMDA type agonist activity [4]: agonists of the non-NMDA type

N[C@H](C(=O)O)[C@@H]1C[C@@H]1C(=O)O [(2S,1'R,2'S)-2-(2-carboxycyclopropyl)glycine]
NMDA type agonist activity [5]: potent agonist of the NMDA type superior to NMDA

NCC(CC(=O)O)c1ccc(Cl)cc1 (stereo not drawn) [Baclofen]
IC50 ([6]; in nM): ~500 nM
IC50 [6]: ~500 nM
